Data as given in patent publication US20260325500A1, “METHODS AND COMPOSITIONS FOR TREATING ACUTE STRESS DISORDER” (BioXcel Therapeutics, Inc., priority 2022, published 2026).
Structures can show the parent of a compound that is named as a salt.

How the values were obtained:
[1] = test system: motor activity (locomotion) and sedation behavior of male Swiss albino mice; assay: Open field test, motor activity (locomotion) and sedation (Example 7); format: in vivo
Method: Rationale: The spontaneous locomotor activity in terms of total distance traveled is measured in open field test. Comparatively lower distance traveled would indicate either less motor activity or sedation.
Animal groups: Swiss albino male mice (6-7 weeks old; 25-40 g weight) were distributed in 10 different experimental groups with 12 […] per group as illustrated in Table
Study drugs: The test substances (Dexmedetomidine hydrochloride and latrepirdine dihydrochloride hydrate) were dissolved in 0.9% normal saline which served as the vehicle.
Study design and dosing: Mice were brought to the laboratory and allowed to acclimatize to the environment for at least 7 days. The open field test was done in lighting conditions of 40 lux light. The mice were dosed as per the grouping in Table 10. After a post dose interval of 60 minutes, 4 mice from a group were placed in the open field and the movement was tracked for a period of 30 minutes. Once the trial was over the mice were removed from the open field and the arena was cleaned. Following this, next set of 4 mice were placed in the arena and tracked.
Statistical analysis: The distance travelled for a period of 30 minutes was analyzed in bins of 5 minutes and was compared with that of the vehicle group using one-way ANOVA followed by Dunnett's test. All statistical analyses were performed using Graph pad prism software package (Version 7 or Higher) and p value below 0.05 was considered as significant.

[2] = test system: mouse behavior (SmartCube signature); assay: SmartCube system behavioral classification (Example 6); format: in vivo, Male C57/B16 mice; settings: IP
Description: Dexmedetomidine and latrepirdine have anti-psychotic effects, when tested in the SmartCube® system (Psychogenics, Inc., Paramus, NJ; See also U.S. Pat. No. 7,580,798 incorporated herein by reference in its entirety). This system uses features derived from mouse behavioral data to first, classify mice on compound versus vehicle. This measure indicates how well the system can differentiate between a mouse on compound versus a mouse on vehicle. Secondly, by comparing the features to a proprietary reference database of behavioral feature sets that are linked to classes of marketed drugs known to treat neuro-psychiatric symptoms SmartCube® assigns a signature to the behavior. Thus, the system can be used as a model to identify both the activity and the psychiatric effect of a compound by comparing the effects of the compounds against drugs with known validated effects.
By comparing the responses of animals to known drugs, the test drug can be categorized according to its function; for example, hallucinogen, anxiogenic, analgesic, cognitive enhancer, psychostimulant, mood stabilizer, high dose anti-psychotic, anti-psychotic, sedative/hypnotic, anxiolytic, high dose antidepressant, antidepressant.
Once all features are extracted from the raw data through an automated pipeline, proprietary bioinformatics algorithms are used to decorrelate groups of features and find the combination of values that best separate different groups of interest. For each compound, at each dose, they system provides a probability that the drug is active and breaks down such putative activity into the different classes of interest.
SmartCube reference data used herein include anti-psychotics and anti-depressants tested at several dose ranges. “Anti-psychotic” versus “high dose anti-psychotic” as indicated in the legend, reflects the notion that anti-psychotics reference data is dose dependent. Anti-psychotics, when administered at higher doses, can engage additional receptor systems, and thus affect mouse behavior differently. The same applies for different doses of anti-depressants.
Animals: Male C57/B16 mice (N=12 per group) from Taconic Laboratories were used. Upon receipt, mice were group-housed in OPTI mouse ventilated cages with 4 mice per cage. Mice were acclimated to the colony room for at least one week prior to test and subsequently tested at approximately 8-9 weeks of age. All animals were examined, handled, and weighed prior to initiation of the study to assure adequate health and suitability and to minimize non-specific stress associated with manipulation.
All compounds tested were formulated in NP3 (vehicle solution): 5% Pharmasolve; 30% P3 (1:1:1 PEG200: PEG400: propylene glycol); 65% saline; pH is 5.1-6.
Test groups were: • Vehicle: NP3 • Dexmedetomidine at 0.005 and 0.010 mg/kg • Latrepirdine at 1 and 10 mg/kg • Dexmedetomidine and latrepirdine combinations (in mg/kg): 0.005/1.0; 0.005/10; 0.010/1.0; 0.010/10
Test compounds were injected intraperitoneally (IP) for 15 min before animals were placed in SmartCube for assessment.
Antipsychotic: SmartCube classifies the mouse behavior with test compound as similar to treatment with marketed anti-psychotics at therapeutically relevant doses.
High Dose Antipsychotic: SmartCube classifies the mouse behavior on test compound as similar to treatment with marketed anti-psychotics at doses that are considered as high therapeutically. High doses of anti-psychotics often cause sedation.
The results for the class analyses are presented as standardized bar charts with percentages that sum to 100 for each dose. The percentage indicates the probability the classifier can differentiate between the vehicle group and test group. The pattern indicates what class signature was assigned.

SMILES | distance traveled ([1]; 1 mg/kg, 3 mg/kg and 10 mg/kg, i.p.) | SmartCube signature ([2]; 1 and 10 mg/kg) | SmartCube total activity ([2]; latrepirdine 1.0 mg/kg) [%] | SmartCube total activity ([2]; latrepirdine 10 mg/kg) [%] | locomotion and sedation ([1]; latrepirdine, open field test)
Cc1ccc2c(c1)c1c(n2CCc2ccc(C)nc2)CCN(C)C1 [latrepirdine dihydrochloride hydrate] | did not show any significant reduction in distance traveled |  |  |  | 
Cc1ccc2c(c1)c1c(n2CCc2ccc(C)nc2)CCN(C)C1 [latrepirdine, 2,8-dimethyl-5-[2-(6-methylpyridin-3-yl)ethyl]-3,4-dihydro-1H-pyrido[4,3-b]indole] |  | antipsychotic signature | 20 | 80 | did not cause any reduction in locomotion nor caused sedation
